Experimental data: PMC13192270, “RhlR quorum-sensing receptor ligand sensitivity regulates the differential expression of phenazine genes in Pseudomonas aeruginosa” (Journal of Bacteriology, 2026)
Residue numbers refer to the chain shown, from its start. Like-named read-outs stand apart in the source and are kept apart here.

Experiments:
[1] = system: LasR; design: method as in PMID 28119451; details: cited from earlier work
[2] = molecular target: T1, RhlR (T58V) (Pseudomonas aeruginosa, UniProt P54292, T58V); assay: E. coli prhlA-luxCDABE luciferase reporter assay; format: cell-based
T1 construct: expressed in transfected cells; host or cells: E. coli carrying pBAD-A-rhlR mutant, pCS26-prhlA-luxCDABE and pACYC-pqsE or empty pACYC
T1 sequence (P54292 1-241 T58V): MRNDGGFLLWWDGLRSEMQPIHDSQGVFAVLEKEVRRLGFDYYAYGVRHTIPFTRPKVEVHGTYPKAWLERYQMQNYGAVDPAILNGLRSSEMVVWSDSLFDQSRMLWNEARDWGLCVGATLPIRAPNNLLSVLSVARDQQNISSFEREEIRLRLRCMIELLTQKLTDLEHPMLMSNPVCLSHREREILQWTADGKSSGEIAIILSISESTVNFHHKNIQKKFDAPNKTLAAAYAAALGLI
Text: (§1) Previous analysis of the RhlR LBP focused on highly conserved residues that were known from other AHL-binding proteins to be important contacts for AHL molecules, particularly the lactone head group. We performed conservation analyses on 300 LuxR-type receptors to determine variable and moderately conserved residues in the LBP (Fig. 1B) and, in conjunction with our previously determined experimental structure of WT RhlR bound to the synthetic agonist mBTL, used for docking C4- and C6HSL. Based on our docking simulations, C4- and C6HSL occupy a similar position in the LBP as mBTL, a highly efficacious activator of RhlR (Fig. 1C; Fig. S1). We targeted residues A44, G46, T58, L69, Y72, D81, I84, W96, and W108 (Fig. 1B and C). These residues were selected because of their proximity to the acyl tail of C4HSL, as well as the differences in conservation that are observed at these sites. We used an E. coli luciferase reporter assay to monitor ligand-dependent activation of WT RhlR and RhlR variants. WT RhlR and RhlR variants were expressed under the control of an arabinose-inducible promoter (Fig. S2). Transcription was monitored by light production via the expression of the luxCDABE operon controlled by the RhlR-dependent promoter of rhlA. Binding of RhlR to the rhlA promoter is highly dependent on the C4HSL-RhlR interaction, based on ChIP-seq analyses performed in P. aeruginosa as well as previously published E. coli reporter systems ([34], [39]). After expressing WT RhlR and RhlR variants in the E. coli reporter system, we performed dose response assays using C4HSL to calculate the concentration of C4HSL required to activate the reporter system to 50% maximum levels (EC50 value; Table 1). As expected, transcription activation by WT RhlR increased with increased C4HSL levels, with an EC50 value of ~2 µM. We observed a range of responses. Figure 1C depicts the targeted residues, which are colored based on the effect of amino acid substitution.
(§2) RhlR requires the accessory-binding protein, PqsE, for maximal activity. To determine if PqsE expression altered the activation of RhlR variants, we assessed AHL-dependent RhlR activation of the prhlA-luxCDABE reporter in the presence of a third plasmid that constitutively expresses PqsE in E. coli. […] RhlR variants that were still active but with increased EC50 values for C4HSL could have their activity enhanced by PqsE. […] Thus, alterations to the LBP can diminish the additive effect of PqsE-dependent transcription, indicating a potential role of allosteric conformational changes dependent on ligand occupancy. […] RhlR variants at residues I84 and W108 could not be activated by C4HSL, and thus, light levels remained low at all concentrations that were tested. Unlike the aforementioned variants, RhlR I84M/W and RhlR W108F/Y were activated by the expression of PqsE (Fig. S4).
(§3) All E. coli strains in this study were grown overnight with shaking in 5 mL Luria-Bertani (LB) media supplemented with 100 µg/mL ampicillin, 50 µg/mL kanamycin, and 15 µg/mL tetracycline at 37°C overnight. Overnight cultures were diluted 1:100 into fresh media, grown at 37°C with shaking for 2 h until reaching OD600 = 0.4. Cultures were induced with a final concentration of 0.1% arabinose, and 198 μL of the induced culture was mixed with 2 μL of C4HSL dilutions in a clear-bottom, black-opaque 96-well plate (Corning) and grown at 37°C with shaking for 4 h. The C4HSL dilution series was performed 1:1 in dimethyl sulfoxide (DMSO) with a top final concentration of 10 μM. Luminescence and optical density were recorded using a Glomax (Promega) plate reader.

[3] = molecular target: T2, WT RhlR (Pseudomonas aeruginosa, UniProt P54292); assay: E. coli prhlA-luxCDABE luciferase reporter assay; format: cell-based; details: read-out: EC50
T2 construct: expressed in transfected cells; host or cells: E. coli carrying pBAD-A-rhlR, pCS26-prhlA-luxCDABE and pACYC-pqsE or empty pACYC
T2 sequence (P54292 1-241): T1 sequence (P54292 1-241 T58V) with V58T
Text: as §1, §2, §3

[4] = molecular target: T3, RhlR (T58L) (Pseudomonas aeruginosa, UniProt P54292, T58L); assay: E. coli prhlA-luxCDABE luciferase reporter assay; format: cell-based, Escherichia coli
T3 construct: expressed in transfected cells; host or cells: E. coli carrying pBAD-A-rhlR mutant, pCS26-prhlA-luxCDABE and pACYC-pqsE or empty pACYC
T3 sequence (P54292 1-241 T58L): T1 sequence (P54292 1-241 T58V) with V58L
Text: as §1, §2, §3

[5] = molecular target: T4, RhlR (T58F) (Pseudomonas aeruginosa, UniProt P54292, T58F); assay: E. coli prhlA-luxCDABE luciferase reporter assay; format: cell-based, Escherichia coli
T4 construct: expressed in transfected cells; host or cells: E. coli carrying pBAD-A-rhlR mutant, pCS26-prhlA-luxCDABE and pACYC-pqsE or empty pACYC
T4 sequence (P54292 1-241 T58F): T1 sequence (P54292 1-241 T58V) with V58F
Text: as §1, §2, §3

[6] = molecular target: T5, RhlR (T58I) (Pseudomonas aeruginosa, UniProt P54292, T58I); assay: E. coli prhlA-luxCDABE luciferase reporter assay; format: cell-based, Escherichia coli
T5 construct: expressed in transfected cells; host or cells: E. coli carrying pBAD-A-rhlR mutant, pCS26-prhlA-luxCDABE and pACYC-pqsE or empty pACYC
T5 sequence (P54292 1-241 T58I): T1 sequence (P54292 1-241 T58V) with V58I
Text: as §1, §2, §3

[7] = molecular target: 6x-His-PqsE (Pseudomonas aeruginosa, UniProt P20581 1-301); assay: cell-based or functional assay

In the case of CCCCCCCCCC(=O)CC(=O)N[C@H]1CCOC1=O [3OC12HSL, N-(3-oxododecanoyl)-L-homoserine lactone], the EC50 [1] is given as about 2 nM.

With CCCCCC(=O)N[C@H]1CCOC1=O [C6HSL] the EC50 ([2]; Vector (no pqsE)) was 809 nM, the EC50 ([2]; pqsE co-expressed) was 111 nM and the EC50 ([3]; Vector (no pqsE)) was 12600 nM. The EC50 ([3]; pqsE co-expressed) was 9240 nM, the EC50 ([4]; Vector (no pqsE)) was 168 nM and the EC50 ([4]; pqsE co-expressed) was 0.908 nM. For the same molecule, the EC50 ([5]; Vector (no pqsE)) was 580 nM, the EC50 ([5]; pqsE co-expressed) was 103 nM and the EC50 ([6]; Vector (no pqsE)) was 561 nM. The EC50 ([6]; pqsE co-expressed) was 51.1 nM.

B1: WT RhlR (receptor)
chain: T1 sequence (P54292 1-241 T58V) with V58T
In the case of B1, the “prhlA-luxCDABE reporter in E. coli: C4HSL-RhlR-dependent expression with PqsE expressed from a third plasmid (pACYC) against the empty vector” value [7] is reported as about 20 fold.
